Source: patent US20250163066A1, “PROTACs of MALT1” (TEGID THERAPEUTICS, INC., priority 2022, published 2025)

Molecular target: MALT1 (Homo sapiens (Human), UniProt Q9UDY8)
Assay: MALT1 enzymatic activity inhibition (fluorescence, Ac-LRSR-AMC substrate)
Format: biochemical
Settings: recombinant MALT1 1.5 ng/μl, Ac-LRSR-AMC 1 μM
Summary of the method: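 Recombinant human MALT1 (1.5 ng/μl final) preincubated 10 min at rt with compounds in 50 mM HEPES pH 7.2-7.4, 100 mM NaCl, 900 mM sodium citrate, 10 mM DTT; 1 μM Ac-LRSR-AMC then added. AMC fluorescence read at start and after 30 min 37 °C plus 30 min rt; difference gives signal, % inhibition fitted to IC50.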

MALT1, sequence (Q9UDY8 whole entry): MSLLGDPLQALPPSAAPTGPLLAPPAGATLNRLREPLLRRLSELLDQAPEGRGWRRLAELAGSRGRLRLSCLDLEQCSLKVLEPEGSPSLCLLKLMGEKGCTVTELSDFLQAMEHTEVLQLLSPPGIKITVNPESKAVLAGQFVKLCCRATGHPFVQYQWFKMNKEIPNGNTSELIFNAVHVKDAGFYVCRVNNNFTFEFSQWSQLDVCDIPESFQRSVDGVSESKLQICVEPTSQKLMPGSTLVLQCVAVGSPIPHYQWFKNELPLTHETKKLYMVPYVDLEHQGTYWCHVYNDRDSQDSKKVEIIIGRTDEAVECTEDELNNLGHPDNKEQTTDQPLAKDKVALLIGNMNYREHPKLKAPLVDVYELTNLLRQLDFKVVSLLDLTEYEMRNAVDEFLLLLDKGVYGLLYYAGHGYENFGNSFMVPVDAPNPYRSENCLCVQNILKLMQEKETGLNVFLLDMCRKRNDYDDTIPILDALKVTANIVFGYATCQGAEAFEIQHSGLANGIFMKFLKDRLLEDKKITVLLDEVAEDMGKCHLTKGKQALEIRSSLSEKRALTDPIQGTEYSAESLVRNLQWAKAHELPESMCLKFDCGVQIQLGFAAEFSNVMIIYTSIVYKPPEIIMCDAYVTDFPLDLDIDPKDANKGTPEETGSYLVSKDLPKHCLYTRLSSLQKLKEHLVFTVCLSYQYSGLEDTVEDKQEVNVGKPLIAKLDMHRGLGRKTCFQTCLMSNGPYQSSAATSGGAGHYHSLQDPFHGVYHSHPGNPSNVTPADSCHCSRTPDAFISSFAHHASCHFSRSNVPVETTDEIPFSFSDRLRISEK

Compound	EC50
Cc1c(NC(=O)Nc2cnc(-c3noc(CCCCCC(=O)N4CCN(c5ccc6c(c5)CN(C5CCC(=O)NC5=O)C6=O)CC4)n3)c(Cl)c2)cnc2ccnn12 (centres unmarked) [Compound 65, 1-[5-chloro-6-[5-[6-[4-[2-(2,6-dioxo-3-piperidyl)-1-oxo-isoindolin-5-yl]piperazin-1-yl]-6-oxo-hexyl]-1,2,4-oxadiazol-3-yl]-3-pyridyl]-3-(7-methylpyrazolo[1,5-a]pyrimidin-6-yl)urea]	0.2 to 0.5 µM
O=C1CCC(N2Cc3cc(N4CCN(C(=O)CCCCCc5nc(-c6ncc(NC(=O)Nc7cnc8ccnn8c7C7CCCC7)cc6F)no5)CC4)ccc3C2=O)C(=O)N1 (centres unmarked) [Compound 74, 1-(7-cyclopentylpyrazolo[1,5-a]pyrimidin-6-yl)-3-[6-[5-[6-[4-[2-(2,6-dioxo-3-piperidyl)-1-oxo-isoindolin-5-yl]piperazin-1-yl]-6-oxo-hexyl]-1,2,4-oxadiazol-3-yl]-5-fluoro-3-pyridyl]urea]	0.2 to 0.5 µM
O=C1CCC(N2Cc3cc(N4CCN(CCCCc5nc(-c6ncc(NC(=O)Nc7cnc8ccnn8c7C7CCCC7)cc6Cl)no5)CC4)ccc3C2=O)C(=O)N1 (centres unmarked) [Compound 75, 1-[5-chloro-6-[5-[4-[4-[2-(2,6-dioxo-3-piperidyl)-1-oxo-isoindolin-5-yl]piperazin-1-yl]butyl]-1,2,4-oxadiazol-3-yl]-3-pyridyl]-3-(7-cyclopentylpyrazolo[1,5-a]pyrimidin-6-yl)urea]	≤ 0.2 µM
O=C1CCC(N2Cc3cc(N4CCN(C(=O)CCCc5nc(-c6ncc(NC(=O)Nc7cnc8ccnn8c7C7CCCC7)cc6F)no5)CC4)ccc3C2=O)C(=O)N1 (centres unmarked) [Compound 77, 1-(7-cyclopentylpyrazolo[1,5-a]pyrimidin-6-yl)-3-[6-[5-[4-[4-[2-(2,6-dioxo-3-piperidyl)-1-oxo-isoindolin-5-yl]piperazin-1-yl]-4-oxo-butyl]-1,2,4-oxadiazol-3-yl]-5-fluoro-3-pyridyl]urea]	≤ 0.2 µM
O=C1CCC(N2Cc3cc(NC(=O)CCCc4nc(-c5ncc(NC(=O)Nc6cnc7ccnn7c6C6CCCC6)cc5Cl)no4)ccc3C2=O)C(=O)N1 (centres unmarked) [Compound 80, 4-[3-[3-chloro-5-[(7-cyclopentylpyrazolo[1,5-a]pyrimidin-6-yl)carbamoylamino]-2-pyridyl]-1,2,4-oxadiazol-5-yl]-N-[2-(2,6-dioxo-3-piperidyl)-1-oxo-isoindolin-5-yl]butanamide]	≤ 0.2 µM
O=C1CCC(N2Cc3cc(N4CCN(C(=O)CCCCc5nc(-c6ncc(NC(=O)Nc7cnc8ccnn8c7C7CCCC7)cc6F)no5)CC4)ccc3C2=O)C(=O)N1 (centres unmarked) [Compound 81, 1-(7-cyclopentylpyrazolo[1,5-a]pyrimidin-6-yl)-3-[6-[5-[5-[4-[2-(2,6-dioxo-3-piperidyl)-1-oxo-isoindolin-5-yl]piperazin-1-yl]-5-oxo-pentyl]-1,2,4-oxadiazol-3-yl]-5-fluoro-3-pyridyl]urea]	0.2 to 0.5 µM
Cc1cc2ncc(NC(=O)Nc3cnc(-c4noc(CCCCCCN5CCN(c6ccc7c(c6)CN(C6CCC(=O)NC6=O)C7=O)CC5)n4)c(C)c3)c(C3CCCC3)n2n1 (centres unmarked) [Compound 83, 1-(7-cyclopentyl-2-methyl-pyrazolo[1,5-a]pyrimidin-6-yl)-3-[6-[5-[6-[4-[2-(2,6-dioxo-3-piperidyl)-1-oxo-isoindolin-5-yl]piperazin-1-yl]hexyl]-1,2,4-oxadiazol-3-yl]-5-methyl-3-pyridyl]urea]	≤ 0.2 µM
Cc1cc2ncc(NC(=O)Nc3cnc(-c4noc(CCCCCN5CCN(c6ccc7c(c6)CN(C6CCC(=O)NC6=O)C7=O)CC5)n4)c(C)c3)c(C3CCCO3)n2n1 (centres unmarked) [Compound 85, 1-[6-[5-[5-[4-[2-(2,6-dioxo-3-piperidyl)-1-oxo-isoindolin-5-yl]piperazin-1-yl]pentyl]-1,2,4-oxadiazol-3-yl]-5-methyl-3-pyridyl]-3-(2-methyl-7-tetrahydrofuran-2-yl-pyrazolo[1,5-a]pyrimidin-6-yl)urea]	≤ 0.2 µM
Cc1cc(-c2noc(CCCCC(=O)N3CCN(c4ccc5c(c4)CN(C4CCC(=O)NC4=O)C5=O)CC3)n2)ncc1NC(=O)Nc1cnc2ccnn2c1C1CCCC1 (centres unmarked) [Compound 94, 1-(7-cyclopentylpyrazolo[1,5-a]pyrimidin-6-yl)-3-[6-[5-[5-[4-[2-(2,6-dioxo-3-piperidyl)-1-oxo-isoindolin-5-yl]piperazin-1-yl]-5-oxo-pentyl]-1,2,4-oxadiazol-3-yl]-4-methyl-3-pyridyl]urea]	> 5 µM
O=C1CCC(N2Cc3cc(N4CCN(CCCCCCc5nc(-c6ncc(NC(=O)Nc7cnc8ccnn8c7C7CCCC7)cc6F)no5)CC4)ccc3C2=O)C(=O)N1 (centres unmarked) [Compound 95, 1-(7-cyclopentylpyrazolo[1,5-a]pyrimidin-6-yl)-3-[6-[5-[6-[4-[2-(2,6-dioxo-3-piperidyl)-1-oxo-isoindolin-5-yl]piperazin-1-yl]hexyl]-1,2,4-oxadiazol-3-yl]-5-fluoro-3-pyridyl]urea]	≤ 0.2 µM
O=C1CCC(N2Cc3cc(N4CCN(CCCCCc5nc(-c6ncc(NC(=O)Nc7cnc8ccnn8c7C7CCCC7)cc6F)no5)CC4)ccc3C2=O)C(=O)N1 (centres unmarked) [Compound 97, 1-(7-cyclopentylpyrazolo[1,5-a]pyrimidin-6-yl)-3-[6-[5-[5-[4-[2-(2,6-dioxo-3-piperidyl)-1-oxo-isoindolin-5-yl]piperazin-1-yl]pentyl]-1,2,4-oxadiazol-3-yl]-5-fluoro-3-pyridyl]urea]	≤ 0.2 µM
O=C1CCC(N2Cc3cc(N4CCN(C(=O)CCCCc5nc(-c6ncc(NC(=O)Nc7cnc8ccnn8c7C7CCCCC7)cc6Cl)no5)CC4)ccc3C2=O)C(=O)N1 (centres unmarked) [Compound 98, 1-[5-chloro-6-[5-[5-[4-[2-(2,6-dioxo-3-piperidyl)-1-oxo-isoindolin-5-yl]piperazin-1-yl]-5-oxo-pentyl]-1,2,4-oxadiazol-3-yl]-3-pyridyl]-3-(7-cyclohexylpyrazolo[1,5-a]pyrimidin-6-yl)urea]	≤ 0.2 µM

The remaining lines, values ahead:

EC50	Compound
≤ 0.2 µM	Cc1cc(NC(=O)Nc2cnc3ccnn3c2C2CCCO2)cnc1-c1noc(CCCN2CCN(c3ccc4c(c3)CN(C3CCC(=O)NC3=O)C4=O)CC2)n1 (centres unmarked) [Compound 62, 1-[6-[5-[3-[4-[2-(2,6-dioxo-3-piperidyl)-1-oxo-isoindolin-5-yl]piperazin-1-yl]propyl]-1,2,4-oxadiazol-3-yl]-5-methyl-3-pyridyl]-3-(7-tetrahydrofuran-2-ylpyrazolo[1,5-a]pyrimidin-6-yl)urea]
≤ 0.2 µM	Cc1cc(NC(=O)Nc2cnc3ccnn3c2C2CCCC2)cnc1-c1noc(CCCCCN2CCN(c3ccc4c(c3)CN(C3CCC(=O)N(C)C3=O)C4=O)CC2)n1 (centres unmarked) [Compound 64, 1-(7-cyclopentylpyrazolo[1,5-a]pyrimidin-6-yl)-3-[5-methyl-6-[5-[5-[4-[2-(1-methyl-2,6-dioxo-3-piperidyl)-1-oxo-isoindolin-5-yl]piperazin-1-yl]pentyl]-1,2,4-oxadiazol-3-yl]-3-pyridyl]urea]
≤ 0.2 µM	CC(C)c1c(NC(=O)Nc2cnc(-c3noc(CCCCCC(=O)N4CCN(c5ccc6c(c5)CN(C5CCC(=O)NC5=O)C6=O)CC4)n3)c(Cl)c2)cnc2ccnn12 (centres unmarked) [Compound 66, 1-[5-chloro-6-[5-[6-[4-[2-(2,6-dioxo-3-piperidyl)-1-oxo-isoindolin-5-yl]piperazin-1-yl]-6-oxo-hexyl]-1,2,4-oxadiazol-3-yl]-3-pyridyl]-3-(7-isopropylpyrazolo[1,5-a]pyrimidin-6-yl)urea]
≤ 0.2 µM	Cc1cc2ncc(NC(=O)Nc3cnc(-c4noc(CCCCCC(=O)N5CCN(c6ccc7c(c6)CN(C6CCC(=O)NC6=O)C7=O)CC5)n4)c(C)c3)c(C3CCCO3)n2n1 (centres unmarked) [Compound 67, 1-[6-[5-[6-[4-[2-(2,6-dioxo-3-piperidyl)-1-oxo-isoindolin-5-yl]piperazin-1-yl]-6-oxo-hexyl]-1,2,4-oxadiazol-3-yl]-5-methyl-3-pyridyl]-3-(2-methyl-7-tetrahydrofuran-2-yl-pyrazolo[1,5-a]pyrimidin-6-yl)urea]
≤ 0.2 µM	Cc1cc(NC(=O)Nc2cnc3ccnn3c2C2CCCC2)cnc1-c1noc(CCCCCCN2CCN(c3ccc4c(c3)CN(C3CCC(=O)NC3=O)C4=O)CC2)n1 (centres unmarked) [Compound 68, 1-(7-cyclopentylpyrazolo[1,5-a]pyrimidin-6-yl)-3-[6-[5-[6-[4-[2-(2,6-dioxo-3-piperidyl)-1-oxo-isoindolin-5-yl]piperazin-1-yl]hexyl]-1,2,4-oxadiazol-3-yl]-5-methyl-3-pyridyl]urea]
≤ 0.2 µM	CC(C)(C)C(=O)OCN1C(=O)CCC(N2Cc3cc(N4CCN(C(=O)CCCCCc5nc(-c6ncc(NC(=O)Nc7cnc8ccnn8c7C7CCCC7)cc6Cl)no5)CC4)ccc3C2=O)C1=O (centres unmarked) [Compound 70, [3-[5-[4-[6-[3-[3-chloro-5-[(7-cyclopentylpyrazolo[1,5-a]pyrimidin-6-yl)carbamoylamino]-2-pyridyl]-1,2,4-oxadiazol-5-yl]hexanoyl]piperazin-1-yl]-1-oxo-isoindolin-2-yl]-2,6-dioxo-1-piperidyl]methyl 2,2-dimethylpropanoate]
≤ 0.2 µM	O=C1CCC(N2Cc3cc(N4CCN(C(=O)CCCc5nc(-c6ncc(NC(=O)Nc7cnc8ccnn8c7C7CCCC7)cc6Cl)no5)CC4)ccc3C2=O)C(=O)N1 (centres unmarked) [Compound 71, 1-[5-chloro-6-[5-[4-[4-[2-(2,6-dioxo-3-piperidyl)-1-oxo-isoindolin-5-yl]piperazin-1-yl]-4-oxo-butyl]-1,2,4-oxadiazol-3-yl]-3-pyridyl]-3-(7-cyclopentylpyrazolo[1,5-a]pyrimidin-6-yl)urea]
≤ 0.2 µM	Cc1cc2ncc(NC(=O)Nc3cnc(-c4noc(CCCCCCN5CCN(c6ccc7c(c6)CN(C6CCC(=O)NC6=O)C7=O)CC5)n4)c(C)c3)c(C3CCCO3)n2n1 (centres unmarked) [Compound 73, 1-[6-[5-[6-[4-[2-(2,6-dioxo-3-piperidyl)-1-oxo-isoindolin-5-yl]piperazin-1-yl]hexyl]-1,2,4-oxadiazol-3-yl]-5-methyl-3-pyridyl]-3-(2-methyl-7-tetrahydrofuran-2-yl-pyrazolo[1,5-a]pyrimidin-6-yl)urea]
